Measurements taken from publication PMC6401629, “Lipid Nanoparticles-Encapsulated YF4: A Potential Therapeutic Oral Peptide Delivery System for Hypertension Treatment” (Frontiers in Pharmacology, 2019).
Residues, ends and D or L forms follow the SMILES beside them.

How the values were obtained:
[1] = Pharmacokinetics after a single gavage administration; assay type: in vivo; conditions: SD rats, single gavage 1.2 mg/kg, plasma, DAS 2.0, mean ± SD, n = 6
Source text: Six 8-week-old male SD rats with weight between 180 to 220 g were purchased from the Laboratory Animal Center of Sichuan University (Sichuan University, Chengdu, Sichuan, China). The animals were maintained under 12-hour dark and light cycles at 22℃ and free access to food and water. After a week of adaptation, these SD rats were admitted to experiments. Absorption of YF4 in SD rats following a single oral administration of YF4 was investigated. At the end of the experiment, the rats were sacrificed inside an isoflurane chamber to avoid unnecessary suffering. The experiments were approved and supervised by the State Key Laboratory of Biotherapy Animal Care and Use Committee (Sichuan University, Chengdu, Sichuan, China).
SD rats were used to investigate the […] of YF4. Rats were chosed randomly for oral administration of free YF4 at the dose of 1.2 mg/kg (n=6), respectively. Before the experiment, all rats were fasted for 12 h with free access to water. Each rat was administered an oral volume of 0.5 mL/100 g. Approximate 200 μL of blood samples were collected from the orbit into a heparin zed centrifuge tube before and at 0.083, 0.25, 0.5, 0.75, 1, 1.5, 2, 3, 4, 6, 8, 12 h post-dosing. All blood samples were centrifuged at 3500 rpm (4 ℃) for 10 min. The plasma samples were collected and stored at -20 ℃ until analyzed by Drug and Statistics 2.0 (DAS 2.0) (Mathematical Pharmacology Professional Committee of China, Shanghai, China).

[2] = system: spontaneously hypertensive rats (SHRs); assay: In vivo antihypertensive efficacy, tail-cuff blood pressure; parameters: species or system rat; conditions: single oral dose 5 mg/kg, 2 h after administration, n = 6
Source text: Twelve weeks old male spontaneously hypertensive rats (SHRs) with a circa weight between 250 and 320 g were purchased from Beijing Vital River Laboratory Animal Technology Co., Ltd. After a week of adaption, animals were admitted to experiments (six per group). […] The rats were free access to food and water. […] In this study, groups of rats were used for the oral administration of saline group, Captopril group vs. YF4 group, YF4 vs. YF4-NPs vs YF4-LNPs.
Simultaneously, the captopril and the saline water were used as the positive control and control group, respectively. SHRs were randomly divided into three groups (n = 6). Control group were treated with 0.9% saline water, and the other groups were treated with captopril (5 mg/kg) or the same dose of YF4 dissolved in saline water. All rats were administered at a single oral dose.
In YF4-LNPs pharmacodynamics study, the SHRs were randomly divided into three groups (n = 6). Control group were treated with 0.9% saline water, the other groups of SHRs were treated withYF4 and YF4-LNPs. All the groups of rats were given the same dose at 0.8 mg/kg body weight. Blood pressure was indirectly recorded as described above. […] All the SBP were measured for three times to get the average value at each time point.

| Structure (SMILES) | Cmax [1] | AUC(0-inf) ([1]; male, rat, po) | CL/F ([1]; male, rat, po, read-out: CLz/F (converted)) | MRT ([1]; male, rat, po, read-out: MRT(0-t)) | half-life ([1]; male, rat, po, read-out: T1/2z (half-life) (converted)) | blood pressure lowing (BPL) effect compared with saline group [2] |
| --- | --- | --- | --- | --- | --- | --- |
| CC(C)C[C@H](NC(=O)CNC(=O)[C@@H](N)Cc1ccc(O)cc1)C(=O)N[C@@H](Cc1ccccc1)C(=O)O [YF4, Tyr-Gly-Leu-Phe] (H-YGLF-OH) | 15470 ± 3050 ng/mL | 45400 ± 9420 ng·h/mL | 0.333 mL/min/kg | 3.17 ± 0.68 h | 2.91 ± 0.05 h | – |
| C[C@H](CS)C(=O)N1CCC[C@H]1C(=O)O [captopril] | – | – | – | – | – | 23.0 mmHg |
